Active and inactive are the calls of the source. The rule behind the calls is not given here.
Experiments:
[1] = Antioxidant activity assessed as DPPH radical scavenging activity at 100 uM after 30 mins (reference value: 1.9 +/- 1.2%); type: functional
[2] = species: Rattus norvegicus; assay: Inhibition of rat bone marrow myeloperoxidase using H2O2 as substrate at 10 uM after 20 mins by TMB based method (reference value: - 1.4 +/- 12.7%)
[3] = Inhibition of rat bone marrow myeloperoxidase using H2O2 as substrate after 20 mins by TMB based method
[4] = biological target: Acetylcholinesterase (Electrophorus electricus) (UniProt O42275); assay: Inhibition of Electrophorus electricus AChE at 100 uM using acetylthiocholine iodide as substrate preincubated for 30 mins followed by substrate addition and measured after 10 mins by Ellman's method
[5] = Antioxidant activity assessed as DPPH radical scavenging activity after 30 mins; type: functional
[6] = Metal chelating activity assessed as compound-Ca2+ complex formation at 20 uM in presence of CaCl2 after 2 hrs by UV-visible spectrophotometric analysis
[7] = Metal chelating activity assessed as compound-Cu2+ complex formation at 20 uM in presence of Cucl2 after 2 hrs by UV-visible spectrophotometric analysis
[8] = Metal chelating activity assessed as compound-Mg2+ complex formation at 20 uM in presence of MgCl2 after 2 hrs by UV-visible spectrophotometric analysis
[9] = Metal chelating activity assessed as compound-Zn2+ complex formation at 20 uM in presence of ZnCl2 after 2 hrs by UV-visible spectrophotometric analysis
[10] = Metal chelating activity assessed as compound-Fe2+ complex formation at 20 uM in presence of FeCl2 after 2 hrs by UV-visible spectrophotometric analysis
[11] = Metal chelating activity assessed as compound-Fe2+ complex stoichiometry ratio of 2:1 at 20 uM in presence of FeCl2 after 2 hrs by Job's plot analysis
[12] = Metal chelating activity assessed as compound-Zn2+ complex stoichiometry ratio of 2:1 at 20 uM in presence of ZnCl2 after 2 hrs by Job's plot analysis
[13] = biological target: Acetylcholinesterase (Electrophorus electricus) (UniProt O42275); assay: Non-competitive mixed inhibition of Electrophorus electricus AChE using acetylthiocholine iodide as substrate preincubated for 30 mins followed by substrate addition and measured after 10 mins by Lineweaver-Burk plot analysis

Acetylcholinesterase (Electrophorus electricus), sequence (O42275 24-633 limits assumed): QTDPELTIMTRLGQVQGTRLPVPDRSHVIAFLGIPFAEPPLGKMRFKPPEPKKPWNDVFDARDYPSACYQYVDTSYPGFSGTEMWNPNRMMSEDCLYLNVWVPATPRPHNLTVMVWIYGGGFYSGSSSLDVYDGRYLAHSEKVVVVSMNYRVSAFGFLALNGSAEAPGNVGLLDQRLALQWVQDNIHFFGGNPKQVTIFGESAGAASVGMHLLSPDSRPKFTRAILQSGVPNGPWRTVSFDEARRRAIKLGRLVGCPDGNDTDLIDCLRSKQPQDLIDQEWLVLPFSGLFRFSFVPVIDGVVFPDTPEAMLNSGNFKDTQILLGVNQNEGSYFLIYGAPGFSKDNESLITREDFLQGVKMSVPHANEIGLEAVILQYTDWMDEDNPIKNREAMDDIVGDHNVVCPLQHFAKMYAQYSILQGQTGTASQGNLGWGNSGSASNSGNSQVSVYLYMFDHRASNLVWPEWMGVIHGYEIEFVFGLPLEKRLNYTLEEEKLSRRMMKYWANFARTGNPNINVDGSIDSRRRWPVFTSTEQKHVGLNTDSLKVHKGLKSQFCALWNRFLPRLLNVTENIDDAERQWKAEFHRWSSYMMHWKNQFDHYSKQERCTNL

| SMILES | Activity [1] [%] | inhibition [2] [%] | IC50 [3] [µM] | inhibition [4] [%] | other results |
| --- | --- | --- | --- | --- | --- |
| O=C(N/N=C/c1cc(Br)ccc1O)c1ccncc1 | 3.9 | 90 | 4.3 | 6.8 |  |
| O=C(N/N=C/c1ccccc1)c1ccncc1 | 3.3 | 5.1 |  | 16.5 |  |
| O=C(N/N=C/c1ccc([N+](=O)[O-])cc1)c1ccncc1 | 2.5 | 32 |  | 12.7 |  |
| O=C(N/N=C/c1coc2ccccc2c1=O)c1ccncc1 | 82.2 | 80.1 | 5.3 | 54.2 | IC50 [5]: 42.4 µM; Activity [6]: inactive; Activity [7]: Active; Activity [8]: inactive; Activity [9]: Active; Activity [10]: Active; Activity [11]: Active; Activity [12]: Active; inhibition [13]: Active |
| NNC(=O)c1ccncc1 [ISONIAZID] | 91.3 | 99 | 3.9 | 5.8 | IC50 [5]: 22.9 µM |
| O=C(N/N=C/c1ccccc1O)c1ccncc1 | 5.3 | 45.3 |  | 3 |  |
| O=C(N/N=C/c1ccc(Cl)c(Cl)c1)c1ccncc1 | 3.9 | -2.4 |  | 14 |  |
| O=C(N/N=C/c1ccccn1)c1ccncc1 | -0.6 | 0.3 |  | 24.5 |  |
| O=C(N/N=C/c1ccc(F)cc1)c1ccncc1 | 8.1 | 4.6 |  | 16.3 |  |
| O=c1c(O)c(-c2ccc(O)c(O)c2)oc2cc(O)cc(O)c12 [QUERCETIN] | 96.3 | 96.3 |  |  | IC50 [5]: 15.3 µM |
| CCN(C)C(=O)Oc1cccc([C@H](C)N(C)C)c1 | 0.2 | 17.1 |  | 59.6 |  |
| O=C(N/N=C/c1cccc([N+](=O)[O-])c1)c1ccncc1 | 2 | -10 |  | 36.2 |  |
| O=C(N/N=C/c1cc(O)ccc1O)c1ccncc1 | 92.4 | 100 | 4.8 | 0.3 | IC50 [5]: 18.3 µM |
| O=C(N/N=C/c1ccc(O)cc1)c1ccncc1 | 28.7 |  |  | 10 |  |
| CN(C)c1ccc(/C=N/NC(=O)c2ccncc2)cc1 [N'-(4-DIMETHYLAMINOBENZYLIDENE)ISONICOTINOHYDRAZIDE] | 6.3 | 96.1 | 1.4 | 6.9 |  |
| O=C(N/N=C/c1c[nH]c2ccccc12)c1ccncc1 | 28.8 | 82.2 | 1.5 | 5.5 |  |
| COc1ccc(/C=N/NC(=O)c2ccncc2)cc1 | 2.4 | 6 |  | 8 |  |
| COc1cc(/C=N/NC(=O)c2ccncc2)ccc1O [FTIVAZIDE] | 76.7 | 17.3 |  | 23.1 | IC50 [5]: 33.6 µM |

— ChEMBL document CHEMBL4627368, “Acylhydrazones as isoniazid derivatives with multi-target profiles for the treatment of Alzheimer's disease: Radical scavenging, myeloperoxidase/acetylcholinesterase inhibition and biometal chelation” (Bioorg Med Chem, 2020)
